{
  "source": "patent US4895864A",
  "about": "“Antibiotic TAN-950A, its production and use” (Takeda Chemical Industries, Ltd., priority 1987, dated 1990)",
  "key": {"Solubility": {"experiment": "Solubility", "assay_type": "physicochemical", "source_text": "The physico-chemical properties of TAN-950A (monosodium salt) obtained in Example 2 described later are as follows."}, "mice": {"test_system": "mice", "experiment": "Acute toxicity in mice", "assay_type": "in vivo", "settings": "intravenous, subdermal, intraperitoneal or oral, 4000 mg/kg"}, "Candida albicans [1]": {"test_system": "Candida albicans", "experiment": "Therapeutic effect on experimental candidosis in mice", "assay_type": "in vivo", "settings": "intravenously infected, twice administration, total of dosages"}, "[2]": {"test_system": "Candida tropicalis IFO0006", "experiment": "Paper disc agar diffusion, growth-inhibition zone", "assay_type": "cell-based", "settings": "monosodium salt, disc 1000 μg/ml, medium D, 28 °C, 48 h, read-out: Diameter of growth-inhibition zone", "experimental": "(§1) Paper discs (8 mm. in diameter, manufactured by Toyo Seisakusho) immersed in an aqueous solution of the antibiotic TAN-950A (monosodium salt) (1000 μg/ml) were put on agar plates seeded with the test organism, and these agar plates were incubated at a given […] for a given period of time. In the Table, \"0\" means no formation of the growth-inhibition zone. Culture media employed are as follows:\n(§2) D: Yeast nitrogen base agar medium (Difco Laboratories, USA) supplemented with glucose (2%) and agar (1.5%)"}, "[3]": {"test_system": "Candida parakrusei IFO0640", "experiment": "Paper disc agar diffusion, growth-inhibition zone", "assay_type": "cell-based", "settings": "monosodium salt, disc 1000 μg/ml, medium D, 28 °C, 48 h, read-out: Diameter of growth-inhibition zone", "experimental": "as §1, §2"}, "[4]": {"test_system": "Microsporum gypseum IFO 6075", "experiment": "Paper disc agar diffusion, growth-inhibition zone", "assay_type": "cell-based", "settings": "Nannizzia gypsea, IFO6075; monosodium salt, disc 1000 μg/ml; medium D, 28 °C, 72 h; read-out: Diameter of growth-inhibition zone", "experimental": "as §1, §2"}, "[5]": {"test_system": "Candida parapsilosis IFO1396", "experiment": "Paper disc agar diffusion, growth-inhibition zone", "assay_type": "cell-based", "settings": "Lodderomyces parapsilosis, monosodium salt, disc 1000 μg/ml, medium D, 28 °C, 48 h, read-out: Diameter of growth-inhibition zone", "experimental": "as §1, §2"}, "Candida albicans [6]": {"test_system": "Candida albicans", "experiment": "TLC-bioautography using Candida albicans", "assay_type": "cell-based", "settings": "aqueous layer of culture filtrate; cellulose f, acetonitrile:water (3:1)"}, "[7]": {"test_system": "Bacillus subtilis PCI 219", "experiment": "Paper disc agar diffusion, growth-inhibition zone", "assay_type": "cell-based", "settings": "PCI219, monosodium salt, disc 1000 μg/ml, medium C, 37 °C, 20 h, 0 = no zone, read-out: Diameter of growth-inhibition zone", "experimental": "as §1\n(§3) C: Trypticase soy agar (Becton Dickinson Co., USA)"}, "[8]": {"test_system": "Escherichia coli NIH JC-2", "experiment": "Paper disc agar diffusion, growth-inhibition zone", "assay_type": "cell-based", "settings": "NIHJC2, monosodium salt, disc 1000 μg/ml, medium C, 37 °C, 20 h, 0 = no zone, read-out: Diameter of growth-inhibition zone", "experimental": "as §1, §3"}, "[9]": {"test_system": "Trichophyton rubrum IFO 5467", "experiment": "Paper disc agar diffusion, growth-inhibition zone", "assay_type": "cell-based", "settings": "IFO5467, monosodium salt, disc 1000 μg/ml, 28 °C, read-out: Diameter of growth-inhibition zone", "experimental": "as §1\nA: Sabouraud's dextrose agar medium\nas §2"}, "[10]": {"test_system": "Torulopsis glabrata IFO 1085", "experiment": "Paper disc agar diffusion, growth-inhibition zone", "assay_type": "cell-based", "settings": "Nakaseomyces glabratus, IFO1085, 48 h, monosodium salt, disc 1000 μg/ml, 28 °C, read-out: Diameter of growth-inhibition zone", "experimental": "as §1\n(§4) B: Yeast nitrogen base agar medium (Difco Laboratories, USA) supplemented with L-asparagine (0.17%)\nas §2"}, "[11]": {"test_system": "Filobasidium uniguttulatum IFO 0699", "experiment": "Paper disc agar diffusion, growth-inhibition zone", "assay_type": "cell-based", "settings": "IFO0699, 48 h, monosodium salt, disc 1000 μg/ml, 28 °C, read-out: Diameter of growth-inhibition zone", "experimental": "as §1, §4, §2"}, "[12]": {"test_system": "Cryptococcus neoformans IFO 0410", "experiment": "Paper disc agar diffusion, growth-inhibition zone", "assay_type": "cell-based", "settings": "IFO0410, 48 h, monosodium salt, disc 1000 μg/ml, 28 °C, read-out: Diameter of growth-inhibition zone", "experimental": "as §1, §4, §2"}, "[13]": {"test_system": "Aspergillus fumigatus IFO 6344", "experiment": "Paper disc agar diffusion, growth-inhibition zone", "assay_type": "cell-based", "settings": "IFO6344, 48 h, monosodium salt, disc 1000 μg/ml, 28 °C, read-out: Diameter of growth-inhibition zone", "experimental": "as §1, §4, §2"}, "[14]": {"test_system": "Penicillium chrysogenum IFO 4626", "experiment": "Paper disc agar diffusion, growth-inhibition zone", "assay_type": "cell-based", "settings": "IFO4626, monosodium salt, disc 1000 μg/ml, 28 °C, read-out: Diameter of growth-inhibition zone", "experimental": "as §1, §4, §2"}, "Candida utilis IFO 0619": {"test_system": "Candida utilis IFO 0619", "experiment": "Paper disc agar diffusion, growth-inhibition zone", "assay_type": "cell-based", "settings": "monosodium salt, disc 1000 μg/ml, 28 °C, 48 h, 0 = no zone", "experimental": "as §1, §4, §2"}, "[15]": {"test_system": "Saccharomyces cerevisiae IFO 0209", "experiment": "Paper disc agar diffusion, growth-inhibition zone", "assay_type": "cell-based", "settings": "IFO0209, 48 h, monosodium salt, disc 1000 μg/ml, 28 °C, read-out: Diameter of growth-inhibition zone", "experimental": "as §1, §4, §2"}, "[16]": {"test_system": "Candida albicans IFO 0583", "experiment": "Paper disc agar diffusion, growth-inhibition zone", "assay_type": "cell-based", "settings": "IFO0583, 48 h, monosodium salt, disc 1000 μg/ml, 28 °C, read-out: Diameter of growth-inhibition zone", "experimental": "as §1, §4, §2"}},
  "note": "Where a name gives a salt, the structure may show the parent alone. Read-outs that look alike come from different tables or passages of the source.",
  "data": [
    {"smiles": "N[C@@H](Cc1c[nH]oc1=O)C(=O)O", "note": "[TAN-950A monosodium salt]", "values": [
      {"measurement": "Solubility", "setting": "Solubility; acetone", "value": "Sparingly soluble"},
      {"measurement": "Solubility", "setting": "Solubility; chloroform", "value": "Sparingly soluble"},
      {"measurement": "Solubility", "setting": "Solubility; dimethyl sulfoxide", "value": "Soluble"},
      {"measurement": "Solubility", "setting": "Solubility; ethyl acetate", "value": "Sparingly soluble"},
      {"measurement": "Solubility", "setting": "Solubility; methanol", "value": "Soluble"},
      {"measurement": "Solubility", "setting": "Solubility; water", "value": "Soluble"},
      {"measurement": "acute toxicity", "setting": "mice", "value": "No acute toxicity"},
      {"measurement": "ED50", "setting": "Candida albicans [1]; oral", "value": 105, "unit": "mg/kg"},
      {"measurement": "ED50", "setting": "Candida albicans [1]; sc, subcutaneous", "value": 40, "unit": "mg/kg"}
    ]},
    {"smiles": "N[C@@H](Cc1c[nH]oc1=O)C(=O)O", "note": "[TAN-950A]", "values": [
      {"measurement": "zone of inhibition at 1000 µg/mL", "setting": "[2]", "value": 25, "unit": "mm"},
      {"measurement": "zone of inhibition at 1000 µg/mL", "setting": "[3]", "value": 43, "unit": "mm"},
      {"measurement": "zone of inhibition at 1000 µg/mL", "setting": "[4]", "value": 41, "unit": "mm"},
      {"measurement": "zone of inhibition at 1000 µg/mL", "setting": "[5]", "value": 40, "unit": "mm"},
      {"measurement": "inhibition zone in TLC-bioautography", "setting": "Candida albicans [6]", "value": "inhibition zones"},
      {"measurement": "zone of inhibition at 1000 µg/mL", "setting": "[7]", "value": 0, "unit": "mm"},
      {"measurement": "zone of inhibition at 1000 µg/mL", "setting": "[8]", "value": 0, "unit": "mm"},
      {"measurement": "zone of inhibition at 1000 µg/mL", "setting": "[9]; medium A, 48 h, 0 = no zone", "value": 0, "unit": "mm"},
      {"measurement": "zone of inhibition at 1000 µg/mL", "setting": "[9]; medium D, 72 h", "value": 47, "unit": "mm"},
      {"measurement": "zone of inhibition at 1000 µg/mL", "setting": "[10]; medium B", "value": 23, "unit": "mm"},
      {"measurement": "zone of inhibition at 1000 µg/mL", "setting": "[10]; medium D", "value": 26, "unit": "mm"},
      {"measurement": "zone of inhibition at 1000 µg/mL", "setting": "[11]; medium B", "value": 23, "unit": "mm"},
      {"measurement": "zone of inhibition at 1000 µg/mL", "setting": "[11]; medium D", "value": 35, "unit": "mm"},
      {"measurement": "zone of inhibition at 1000 µg/mL", "setting": "[12]; medium B, 0 = no zone", "value": 0, "unit": "mm"},
      {"measurement": "zone of inhibition at 1000 µg/mL", "setting": "[12]; medium D", "value": 27, "unit": "mm"},
      {"measurement": "zone of inhibition at 1000 µg/mL", "setting": "[13]; medium B, 0 = no zone", "value": 0, "unit": "mm"},
      {"measurement": "zone of inhibition at 1000 µg/mL", "setting": "[13]; medium D", "value": 57, "unit": "mm"},
      {"measurement": "zone of inhibition at 1000 µg/mL", "setting": "[14]; medium B, 66 h, 0 = no zone", "value": 0, "unit": "mm"},
      {"measurement": "zone of inhibition at 1000 µg/mL", "setting": "[14]; medium D, 72 h", "value": 35, "unit": "mm"},
      {"measurement": "zone of inhibition at 1000 µg/mL", "setting": "Candida utilis IFO 0619; Williopsis jadinii, IFO0619, medium B, read-out: Diameter of growth-inhibition zone", "value": 0, "unit": "mm"},
      {"measurement": "Diameter of growth-inhibition zone", "setting": "Candida utilis IFO 0619; medium D", "value": 0, "unit": "mm"},
      {"measurement": "zone of inhibition at 1000 µg/mL", "setting": "[15]; medium B", "value": 24, "unit": "mm"},
      {"measurement": "zone of inhibition at 1000 µg/mL", "setting": "[15]; medium D", "value": 25, "unit": "mm"},
      {"measurement": "zone of inhibition at 1000 µg/mL", "setting": "[16]; medium B", "value": 21, "unit": "mm"},
      {"measurement": "zone of inhibition at 1000 µg/mL", "setting": "[16]; medium D", "value": 34, "unit": "mm"}
    ]}
  ]
}
